In BigSolDB 2.1:

CNC[C@H](O)[C@@H](O)[C@H](O)[C@H](O)CO.Cc1c(Nc2ncccc2C(=O)O)cccc1C(F)(F)F gave a solubility (mole fraction) (in acetone, 283.15 K) of 0.00077, a solubility (mole fraction) (in acetone, 288.15 K) of 0.000937 and a solubility (mole fraction) (in acetone, 293.15 K) of 0.00119. The solubility (mole fraction) (in acetone, 298.15 K) was 0.00158, the solubility (mole fraction) (in acetone, 303.15 K) was 0.00215 and the solubility (mole fraction) (in acetone, 308.15 K) was 0.00275. The solubility (mole fraction) (in acetone, 313.15 K) was 0.00354, the solubility (mole fraction) (in acetone, 318.15 K) was 0.0048 and the solubility (mole fraction) (in acetone, 323.15 K) was 0.00698. For the same molecule, the solubility (mole fraction) (in acetone, 328.15 K) was 0.0104, the solubility (mole fraction) (in acetonitrile, 283.15 K) was 3.16e-05 and the solubility (mole fraction) (in acetonitrile, 288.15 K) was 3.86e-05. For the same molecule, the solubility (mole fraction) (in acetonitrile, 293.15 K) was 4.58e-05, the solubility (mole fraction) (in acetonitrile, 298.15 K) was 6.88e-05 and the solubility (mole fraction) (in acetonitrile, 303.15 K) was 0.000109. The solubility (mole fraction) (in acetonitrile, 308.15 K) was 0.000173, the solubility (mole fraction) (in acetonitrile, 313.15 K) was 0.00025 and the solubility (mole fraction) (in acetonitrile, 318.15 K) was 0.00035. For the same molecule, the solubility (mole fraction) (in acetonitrile, 323.15 K) was 0.000517, the solubility (mole fraction) (in acetonitrile, 328.15 K) was 0.000733 and the solubility (mole fraction) (in ethanol, 283.15 K) was 0.00285. It also gave a solubility (mole fraction) (in ethanol, 288.15 K) of 0.00353, a solubility (mole fraction) (in ethanol, 293.15 K) of 0.00448 and a solubility (mole fraction) (in ethanol, 298.15 K) of 0.00576. For the same molecule, the solubility (mole fraction) (in ethanol, 303.15 K) was 0.00775, the solubility (mole fraction) (in ethanol, 308.15 K) was 0.0113 and the solubility (mole fraction) (in ethanol, 313.15 K) was 0.0162. It also gave a solubility (mole fraction) (in ethanol, 318.15 K) of 0.0228, a solubility (mole fraction) (in ethanol, 323.15 K) of 0.0345 and a solubility (mole fraction) (in ethanol, 328.15 K) of 0.0502. It also gave a solubility (mole fraction) (in isopropanol, 283.15 K) of 0.000626, a solubility (mole fraction) (in isopropanol, 288.15 K) of 0.000759 and a solubility (mole fraction) (in isopropanol, 293.15 K) of 0.000924. The solubility (mole fraction) (in isopropanol, 298.15 K) was 0.00118, the solubility (mole fraction) (in isopropanol, 303.15 K) was 0.00162 and the solubility (mole fraction) (in isopropanol, 308.15 K) was 0.00198. The solubility (mole fraction) (in isopropanol, 313.15 K) was 0.00299, the solubility (mole fraction) (in isopropanol, 318.15 K) was 0.00433 and the solubility (mole fraction) (in isopropanol, 323.15 K) was 0.00642. For the same molecule, the solubility (mole fraction) (in isopropanol, 328.15 K) was 0.00934, the solubility (mole fraction) (in methanol, 283.15 K) was 0.0202 and the solubility (mole fraction) (in methanol, 288.15 K) was 0.024. It also gave a solubility (mole fraction) (in methanol, 293.15 K) of 0.0293, a solubility (mole fraction) (in methanol, 298.15 K) of 0.0349 and a solubility (mole fraction) (in methanol, 303.15 K) of 0.0448. For the same molecule, the solubility (mole fraction) (in methanol, 308.15 K) was 0.0547, the solubility (mole fraction) (in methanol, 313.15 K) was 0.0652 and the solubility (mole fraction) (in methanol, 318.15 K) was 0.08. The solubility (mole fraction) (in methanol, 323.15 K) was 0.0934, the solubility (mole fraction) (in methanol, 328.15 K) was 0.111 and the solubility (mole fraction) (in water, 283.15 K) was 0.00738. It also gave a solubility (mole fraction) (in water, 288.15 K) of 0.00886, a solubility (mole fraction) (in water, 293.15 K) of 0.0111 and a solubility (mole fraction) (in water, 298.15 K) of 0.0151. It also gave a solubility (mole fraction) (in water, 303.15 K) of 0.021, a solubility (mole fraction) (in water, 308.15 K) of 0.0286 and a solubility (mole fraction) (in water, 313.15 K) of 0.0382. For the same molecule, the solubility (mole fraction) (in water, 318.15 K) was 0.0504, the solubility (mole fraction) (in water, 323.15 K) was 0.0633 and the solubility (mole fraction) (in water, 328.15 K) was 0.0807.
